ChEMBL document CHEMBL1201862, “PubChem BioAssay data set” (2004)
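Exposure lasted 48 hours, with cells grown in 96-well plates and compounds tested at five concentrations. GI50 is the concentration that inhibits growth by half.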 Calls of active or inactive are those of the source. No stated cut-off is given here; in the data, active = GI50 up to about 1.1 µM and inactive = higher.

Assays:
Experiment in all cases: growth of human tumour cells (NCI), 48 h
T47D = test system: T47D
IGROV-1 = test system: IGROV-1
SK-OV-3 = test system: SK-OV-3
A498 = test system: A498
RXF 393 = test system: RXF 393
MDA-N = test system: MDA-N
SK-MEL-5 = test system: SK-MEL-5
SF-539 = test system: SF-539
LOX IMVI = test system: LOX IMVI
K562 = test system: K562
Malme-3M = test system: Malme-3M
MCF7 = test system: MCF7
MDA-MB-231 = test system: MDA-MB-231
SW-620 = test system: SW-620
M14 = test system: M14
MOLT-4 = test system: MOLT-4
SF-268 = test system: SF-268
U-251 = test system: U-251
OVCAR-4 = test system: OVCAR-4
HCT-116 = test system: HCT-116

Measured: GI50

COc1ccc(/C(C)=C2\CCCN(Cc3ccccc3)C2)cc1
inactive: T47D 22.5 µM | IGROV-1 28.2 µM | SK-OV-3 29.9 µM | A498 33.7 µM | RXF 393 18.6 µM | MDA-N 18.8 µM | SK-MEL-5 17.5 µM | SF-539 15.8 µM | LOX IMVI 16.7 µM | K562 24 µM | Malme-3M 19.2 µM | MCF7 19.2 µM | MDA-MB-231 21.4 µM | SW-620 19.1 µM | M14 18.1 µM | MOLT-4 24.4 µM | SF-268 17.4 µM | U-251 19.6 µM | OVCAR-4 27.2 µM

CCOc1ccc2c(c1)C(/C(C(Cl)=C(Cl)Cl)=[N+](/[O-])OC(=O)c1ccccc1)=N2
inactive: T47D 26 µM | SK-OV-3 > 100 µM | A498 > 100 µM | RXF 393 47.8 µM | MDA-N 37 µM | SK-MEL-5 35.3 µM | SF-539 79.3 µM | LOX IMVI 57.9 µM | K562 38.7 µM | Malme-3M > 100 µM | HCT-116 46 µM | MCF7 39 µM | MDA-MB-231 45.7 µM | SW-620 65.8 µM | M14 58.7 µM | MOLT-4 39 µM | SF-268 44.5 µM | U-251 46.7 µM | OVCAR-4 23 µM

NC(CCC(=O)c1ccccn1)C(=O)O (stereo unspecified)
inactive: T47D > 100 µM | IGROV-1 > 100 µM | SK-OV-3 > 100 µM | A498 > 100 µM | RXF 393 > 100 µM | MDA-N > 100 µM | SK-MEL-5 > 100 µM | SF-539 > 100 µM | LOX IMVI > 100 µM | Malme-3M > 100 µM | HCT-116 > 100 µM | MCF7 > 100 µM | MDA-MB-231 > 100 µM | SW-620 > 100 µM | M14 > 100 µM | MOLT-4 > 100 µM | SF-268 > 100 µM | U-251 > 100 µM | OVCAR-4 > 100 µM

Cc1ccc(/N=N/C(=N/NC(=O)c2ccccc2)c2ccc(N(CCC#N)CCC#N)cc2C)cc1
inactive: T47D 37.4 µM | IGROV-1 29.3 µM | SK-OV-3 60.3 µM | A498 19.8 µM | RXF 393 22.8 µM | MDA-N 3.97 µM | SK-MEL-5 13.4 µM | SF-539 19.3 µM | K562 8.05 µM | Malme-3M 43.5 µM | HCT-116 29.3 µM | MCF7 21.3 µM | MDA-MB-231 31.4 µM | M14 78.2 µM | MOLT-4 61.1 µM | SF-268 41.9 µM | U-251 52.6 µM | OVCAR-4 99.8 µM

CO[C@@H](c1ccccc1)[C@H](O)[C@@](O)(c1ccccc1)P(=O)(OC)OC
inactive: T47D > 100 µM | IGROV-1 48.2 µM | SK-OV-3 > 100 µM | A498 > 100 µM | RXF 393 > 100 µM | MDA-N > 100 µM | SK-MEL-5 > 100 µM | SF-539 > 100 µM | LOX IMVI > 100 µM | K562 > 100 µM | Malme-3M 36.6 µM | HCT-116 > 100 µM | MCF7 > 100 µM | MDA-MB-231 > 100 µM | SW-620 > 100 µM | M14 > 100 µM | MOLT-4 > 100 µM | SF-268 > 100 µM | U-251 > 100 µM

C[C@@H]1OC(=O)C[C@H]2CC(=O)N(CCc3cn(S(=O)(=O)C(F)(F)F)c4ccccc34)C[C@@H]21
inactive: T47D > 100 µM | IGROV-1 > 100 µM | SK-OV-3 > 100 µM | A498 > 100 µM | RXF 393 > 100 µM | MDA-N > 100 µM | SK-MEL-5 > 100 µM | K562 > 100 µM | Malme-3M > 100 µM | HCT-116 > 100 µM | MCF7 > 100 µM | MDA-MB-231 > 100 µM | SW-620 > 100 µM | M14 > 100 µM | MOLT-4 > 100 µM | SF-268 > 100 µM | U-251 > 100 µM | OVCAR-4 > 100 µM

CCOC(=O)c1c(NC(=O)c2ccccc2)sc2c1CCCC2
inactive: T47D > 100 µM | IGROV-1 > 100 µM | SK-OV-3 > 100 µM | A498 > 100 µM | RXF 393 > 100 µM | MDA-N > 100 µM | SK-MEL-5 > 100 µM | SF-539 > 100 µM | LOX IMVI > 100 µM | K562 > 100 µM | Malme-3M 78.9 µM | HCT-116 > 100 µM | MCF7 > 100 µM | MDA-MB-231 81.7 µM | SW-620 > 100 µM | M14 > 100 µM | MOLT-4 > 100 µM | SF-268 > 100 µM | U-251 > 100 µM

O=C(/C=C\c1ccsc1)c1ccccc1
inactive: T47D 5.31 µM | IGROV-1 6.9 µM | SK-OV-3 17.1 µM | A498 5.31 µM | RXF 393 5.75 µM | MDA-N 12.4 µM | SK-MEL-5 13.8 µM | SF-539 7.06 µM | LOX IMVI 2.21 µM | K562 4 µM | HCT-116 3.85 µM | MCF7 1.74 µM | MDA-MB-231 4.17 µM | SW-620 2.91 µM | M14 8.47 µM | MOLT-4 2.94 µM | SF-268 6.9 µM | U-251 3.78 µM | OVCAR-4 3.94 µM

Cc1ccc(NC(=O)CC(=O)N2N=C(N3CCCCC3)CC2c2ccccc2)cc1 (stereo unspecified)
inactive: T47D > 100 µM | IGROV-1 > 100 µM | A498 > 100 µM | RXF 393 > 100 µM | MDA-N > 100 µM | SK-MEL-5 > 100 µM | LOX IMVI > 100 µM | Malme-3M > 100 µM | HCT-116 > 100 µM | MCF7 > 100 µM | MDA-MB-231 > 100 µM | SW-620 > 100 µM | M14 > 100 µM | MOLT-4 > 100 µM | SF-268 > 100 µM | U-251 > 100 µM | OVCAR-4 > 100 µM

CC(C)(C)OC(=O)/C=C/[C@@H](CCC(=O)/C=C/[C@H](/C=C\CCCC(=O)O)NC1(c2ccccc2)c2ccccc2-c2ccccc21)O[Si](C)(C)C(C)(C)C
inactive: T47D 12.6 µM | IGROV-1 16.5 µM | SK-OV-3 46.6 µM | A498 19.2 µM | RXF 393 11.5 µM | MDA-N 17.1 µM | SK-MEL-5 16.9 µM | SF-539 18.2 µM | LOX IMVI 13.8 µM | K562 16 µM | HCT-116 13.6 µM | MCF7 15.9 µM | MDA-MB-231 14.1 µM | SW-620 26.9 µM | M14 14 µM | MOLT-4 9.16 µM | SF-268 17.1 µM | U-251 16.3 µM | OVCAR-4 17.1 µM
